These results are taken from patent US9631001B2, “Peptide antagonists of the vasopressin-2 receptor” (COMMISSARIAT A L'ENERGIE ATOMIQUE ET AUX ENERGIES …, priority 2012, dated 2017).

The target of one series is T1, Nav1.5 (Homo sapiens, UniProt Q14524).
T1 construct: expressed in transfected cells
Put plainly: IonWorks electrophysiological assay. It is filed as cell-based. The following applies: 1 μM. As for the experimental part: The stock solution was transferred to a master plate and into assay plates where 2 μl per well of the solution were placed. On the day of the assay, 198 μl of external solution containing the appropriate DMSO concentration was added and mixed thoroughly. This provided a 1:100 dilution. A further 1:3 dilution occurred upon addition to the cells in the IonWorks, giving a 1:300 dilution in total. On each assay plate, at least 8 wells were reserved for vehicle control (0.3% DMSO) and at least 8 wells for each positive control specific to the cell line tested. The positive controls were tested at a maximal blocking and an approximate IC50 concentration. The compounds used for positive controls: Nav1.5 100 μM and 5 mM Lidocaine, Kv4.3/KChIP2 20 μM and 500 μM Quinidine, Cav1.2 1 μM and 100 μM Nitrendipine, Kv1.5 300 μM and 10 mM 4-AP, KCNQ1/minK 10 μM and 100 μM Chromanol 293B, hERG 0.1 μM and 1 μM Cisapride, HCN4 50 μM and 3 mM Cesium, Kir2.1 20 μM and 500 μM Barium.
On the technique in general: The patch-clamp technique gives a direct electrical read-out from membranes.

Series [1] concerns the target vasopressin V2 receptor subtype (V2R) (Homo sapiens, UniProt P30518). Put plainly: 3H-AVP competition binding on V2R membranes. The following applies: affinity for the V2R, equilibrium binding, 3H-AVP (FIG. 2).
Description: Reaction mixtures contained 50 mM Tris-HCl, pH 7.4, 10 mM MgCl2 and 1 g/L BSA in a final volume of 100 μL. Plates were incubated for 3 h at room temperature. Binding reactions were stopped by filtration through a GF/C filter pre-soaked in 0.5% polyethyleneimine on a cell harvester ([sequence], Courtaboeuf, France) and plates were dried. […] A one-site inhibition mass action curve was fitted to inhibition binding data using Kaleidagraph (SYNERGY SOFTWARE, Reading, Pa., USA).
A further series concerns the target T2, hV2-Rluc receptor (Homo sapiens, UniProt P30518).
T2 construct: expressed in transfected cells; host or cells: tsA cells (HEK293 derivative), transiently transfected
Put plainly: β-arrestin-1-YFP mobilization (BRET) to V2-Rluc in tsA cells. The format is cell-based. (BRET reads energy transfer from a luciferase to a nearby fluorophore.)

In another series the test system is CD1^pcy/pcy mice. Put plainly: Cyst formation in pcy mice (kidney weight, cyst number). The format is in vivo, mouse. The following applies: 0.1 μmol/kg/day i.p., 99 days. On the procedure: The toxin was dissolved in 0.9% NaCl at a concentration of 1 mg/ml. 10 week-old CD1^pcy/pcy mice were injected intraperitoneally with the toxin at a dose of 0.1 μmol toxin/kg of body weightday for 99 days. Then the mice were perfusion-fixed with 4% paraformaldehyde/1× phosphate-buffered saline, the kidneys and hearts were taken out and weighed. Then, the ratio of kidney weight or heart weightbody weight and kidney weightheart weight was calculated to evaluate an effect of the toxin on cyst formation. The kidneys were embedded in paraffin. Transverse kidney sections were stained with hematoxylin and eosin. Cyst number was determined using the program ImageJ and related to the size of the section thus arriving at the relative cyst number.

Each structure is given as a SMILES string.

T1 sequence (Q14524 whole entry): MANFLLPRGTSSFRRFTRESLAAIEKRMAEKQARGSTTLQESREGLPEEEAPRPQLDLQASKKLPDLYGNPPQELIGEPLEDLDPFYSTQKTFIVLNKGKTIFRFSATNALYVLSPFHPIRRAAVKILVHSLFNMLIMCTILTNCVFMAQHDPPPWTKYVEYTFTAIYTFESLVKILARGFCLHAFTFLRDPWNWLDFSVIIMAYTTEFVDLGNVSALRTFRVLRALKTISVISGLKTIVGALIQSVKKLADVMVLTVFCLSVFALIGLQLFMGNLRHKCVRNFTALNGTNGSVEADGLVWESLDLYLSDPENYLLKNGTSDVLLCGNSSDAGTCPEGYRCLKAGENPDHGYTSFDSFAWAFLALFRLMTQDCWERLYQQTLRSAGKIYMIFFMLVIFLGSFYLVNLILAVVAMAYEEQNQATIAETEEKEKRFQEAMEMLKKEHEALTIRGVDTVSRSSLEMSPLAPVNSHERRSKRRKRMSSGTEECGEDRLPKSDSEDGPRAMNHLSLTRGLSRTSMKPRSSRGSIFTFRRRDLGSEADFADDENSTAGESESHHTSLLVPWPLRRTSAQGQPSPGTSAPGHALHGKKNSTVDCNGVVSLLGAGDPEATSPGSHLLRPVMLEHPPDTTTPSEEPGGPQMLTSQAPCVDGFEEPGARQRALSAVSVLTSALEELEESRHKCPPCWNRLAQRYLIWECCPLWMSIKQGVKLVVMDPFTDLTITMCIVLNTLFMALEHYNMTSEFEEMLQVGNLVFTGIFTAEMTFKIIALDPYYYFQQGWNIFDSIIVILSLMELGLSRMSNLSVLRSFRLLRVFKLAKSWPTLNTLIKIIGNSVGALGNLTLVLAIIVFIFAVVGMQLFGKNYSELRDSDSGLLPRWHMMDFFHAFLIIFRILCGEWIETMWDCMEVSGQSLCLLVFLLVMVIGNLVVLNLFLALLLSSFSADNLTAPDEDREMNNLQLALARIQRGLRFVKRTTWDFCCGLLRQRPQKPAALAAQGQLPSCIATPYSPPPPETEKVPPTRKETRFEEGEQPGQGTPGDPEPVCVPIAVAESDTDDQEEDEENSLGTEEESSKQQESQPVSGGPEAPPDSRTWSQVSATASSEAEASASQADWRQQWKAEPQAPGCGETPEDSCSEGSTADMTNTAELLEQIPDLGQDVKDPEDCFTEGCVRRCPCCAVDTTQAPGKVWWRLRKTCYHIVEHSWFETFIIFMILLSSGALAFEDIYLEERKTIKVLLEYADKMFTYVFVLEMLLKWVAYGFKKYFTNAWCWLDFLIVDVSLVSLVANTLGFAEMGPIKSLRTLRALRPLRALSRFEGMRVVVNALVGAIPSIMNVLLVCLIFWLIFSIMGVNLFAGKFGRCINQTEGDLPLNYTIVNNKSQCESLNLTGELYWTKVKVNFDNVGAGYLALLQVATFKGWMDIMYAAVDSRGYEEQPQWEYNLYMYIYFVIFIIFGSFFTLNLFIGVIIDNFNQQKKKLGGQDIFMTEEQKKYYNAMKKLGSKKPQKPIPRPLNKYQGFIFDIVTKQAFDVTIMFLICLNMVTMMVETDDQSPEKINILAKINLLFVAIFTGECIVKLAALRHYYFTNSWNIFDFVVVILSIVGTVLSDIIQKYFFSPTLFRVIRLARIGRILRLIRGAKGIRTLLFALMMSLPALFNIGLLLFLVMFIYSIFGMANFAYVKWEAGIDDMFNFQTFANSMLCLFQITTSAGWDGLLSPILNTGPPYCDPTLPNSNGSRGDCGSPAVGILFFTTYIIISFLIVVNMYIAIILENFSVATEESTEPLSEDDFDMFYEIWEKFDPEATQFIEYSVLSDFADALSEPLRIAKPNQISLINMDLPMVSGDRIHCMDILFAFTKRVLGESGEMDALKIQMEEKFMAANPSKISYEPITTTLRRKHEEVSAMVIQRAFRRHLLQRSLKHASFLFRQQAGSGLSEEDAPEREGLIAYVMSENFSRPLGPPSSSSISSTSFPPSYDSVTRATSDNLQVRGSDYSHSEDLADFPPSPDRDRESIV
Chain of vasopressin V2 receptor subtype (V2R) (P30518 whole entry): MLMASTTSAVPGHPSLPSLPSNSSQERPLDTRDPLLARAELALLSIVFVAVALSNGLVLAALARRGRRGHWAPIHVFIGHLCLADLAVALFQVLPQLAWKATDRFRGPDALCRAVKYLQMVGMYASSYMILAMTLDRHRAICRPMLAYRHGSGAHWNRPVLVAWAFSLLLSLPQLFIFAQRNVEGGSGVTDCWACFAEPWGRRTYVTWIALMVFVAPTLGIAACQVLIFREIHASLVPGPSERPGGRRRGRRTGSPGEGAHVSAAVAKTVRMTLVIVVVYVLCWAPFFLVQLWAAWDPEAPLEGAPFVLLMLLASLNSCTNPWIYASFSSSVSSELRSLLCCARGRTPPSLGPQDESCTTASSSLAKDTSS
T2 sequence (P30518 whole entry): as above
Description for hV2-Rluc receptor: 2.5×10^6 tsA cells, a transformed human kidney (HEK293) cell line stably expressing an SV40 temperature sensitive T antigen (ECACC), transiently transfected with 150 ng of pRK5 expression plasmid for hV2Rluc ([sequence] #556104, BD BIOSCIENCE; Terrillon et al., Mol. Endocrinol., 2003, 17, 677-691) and with 1 μg of an expression plasmid for β-arrestin-1-YFP ((β-arrestin cloned into pEYFP-N1 (CLONTECH); Scott et al., J. Biol. Chem., 2002, 277, 3552-3559) were seeded in 6-well plates. 48 h after transfection, cells were washed with KREBS buffer containing 146 mM NaCl, 4.2 mM KCl, 0.5 mM MgCl2, 1 mM CaCl2, 10 mM HEPES pH 7.4, 1 mg/ml glucose and resuspended in 1 ml of this buffer. Bioluminescence Resonance Energy Transfer (BRET™) measurements between the V2-Rluc and β-arrestin-1-YFP were performed in 96-well plates with a final volume of 50 μl containing 30 μl of cell suspension (75,000 cells), 10 μl of KREBS buffer (control condition) or the mix of ligands containing either increasing concentrations of vasopressin (stimulated control condition) or in the presence of increasing concentrations of toxin (stimulated condition with inhibitor).

`CC[C@H](C)[C@@H]1NC(=O)[C@H]([C@@H](C)O)NC(=O)[C@H](CO)NC(=O)[C@H](Cc2ccccc2)NC(=O)[C@H](CCCNC(=N)N)NC(=O)[C@H](CC(N)=O)NC(=O)[C@H](C)NC(=O)[C@H](CC(N)=O)NC(=O)CNC(=O)[C@H](CCCCN)NC(=O)[C@@H]2CSSC[C@@H]3NC(=O)[C@@H]4CCCN4C(=O)CNC(=O)[C@@H]4CCCN4C(=O)[C@H](CCCCN)NC(=O)[C@H](C(C)C)NC(=O)[C@@H]4CCCN4C(=O)[C@H](CC(C)C)NC(=O)[C@H](CC(N)=O)NC(=O)[C@@H](NC(=O)[C@H](Cc4ccccc4)NC(=O)[C@H](CO)NC(=O)[C@@H]4CCCN4C(=O)[C@@H](N)CCCNC(=N)N)CSSC[C@@H](C(=O)N[C@H](C(=O)NCC(=O)O)C(C)C)NC(=O)[C@H]([C@@H](C)O)NC(=O)[C@H](CCCNC(=N)N)NC(=O)[C@H](CCCNC(=N)N)NC(=O)[C@H](CSSC[C@H](NC(=O)[C@H](CCCCN)NC(=O)[C@H](CC(N)=O)NC(=O)[C@H]([C@@H](C)O)NC(=O)[C@H](CCCCN)NC(=O)[C@H](CCC(N)=O)NC(=O)[C@H](CO)NC(=O)[C@H](Cc4ccc(O)cc4)NC(=O)[C@H](Cc4ccc(O)cc4)NC(=O)[C@H](Cc4ccccc4)NC(=O)[C@H](C)NC(=O)[C@H](CO)NC(=O)[C@H](Cc4ccccc4)NC(=O)[C@H](Cc4ccccc4)NC(=O)CNC(=O)[C@H](CC(N)=O)NC3=O)C(=O)N[C@@H](Cc3c[nH]cn3)C(=O)N[C@@H](CO)C(=O)N[C@@H](Cc3ccccc3)C(=O)N[C@@H]([C@@H](C)O)C(=O)N[C@@H](Cc3ccc(O)cc3)C(=O)NCC(=O)NCC(=O)N2)NC(=O)[C@H](CCCCN)NC(=O)[C@H](CCC(=O)O)NC1=O` [U-Da2a]: at Nav1.5, the “inhibition of Nav1.5” value is on record as “did not appear to exhibit significant inhibition”. For the same compound, the Ki in series [1] fell in the range of 2 to 5 nM. The same compound had a Kb on hV2-Rluc receptor of 100 nM. Also, in the series on CD1^pcy/pcy mice, the kidney weight entry is “reduces kidney weight”. For the same compound, the number of cysts result in the series with CD1^pcy/pcy mice (histology) is reported as “significantly reduces the number of cysts”.

By Ki is commonly meant the dissociation constant of the complex between target and ligand, obtained from inhibition or displacement. Higher therefore signals lower affinity.
